Results as given in patent US20240308960A1 (Sumitomo Pharma Co., Ltd., priority 2021, published 2024).

biological target: T1, Human orexin receptor type 2 (Homo sapiens, UniProt O43614); test: Test Example 1: agonist activity for orexin receptor type 2 (aequorin luminescence, intracellular calcium mobilization); conditions: compound 10 μm; CHO cells transiently expressing human orexin receptor type 2 and apoaequorin; relative percentage of luminescence for the luminescence (100%) of Orexin A (100 μM)
T1 sequence (O43614 1-444): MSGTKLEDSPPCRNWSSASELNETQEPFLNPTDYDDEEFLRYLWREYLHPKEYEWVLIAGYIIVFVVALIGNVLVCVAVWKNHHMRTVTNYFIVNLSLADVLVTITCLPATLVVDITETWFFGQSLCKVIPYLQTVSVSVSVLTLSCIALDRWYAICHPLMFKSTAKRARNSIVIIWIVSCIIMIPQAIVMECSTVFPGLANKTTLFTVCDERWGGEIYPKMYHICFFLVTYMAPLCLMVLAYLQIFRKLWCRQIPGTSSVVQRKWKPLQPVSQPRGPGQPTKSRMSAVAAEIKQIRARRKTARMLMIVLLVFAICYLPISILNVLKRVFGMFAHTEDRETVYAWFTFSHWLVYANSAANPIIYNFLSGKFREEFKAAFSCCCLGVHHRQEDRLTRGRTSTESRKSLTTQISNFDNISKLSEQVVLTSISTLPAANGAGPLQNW

Compound | Agonist Activity (%)
COC(=O)c1cccc(N2CCN(C(C)C)CC2)c1NC(=O)N1CCC(c2ccc(C)cc2)CC1 [Example 38, methyl 2-{[4-(4-methylphenyl)piperidine-1-carbonyl]amino}-3-[4-(propan-2-yl)piperazin-1-yl]benzoate] | 119%
Cc1ccc(C2CCN(C(=O)Nc3c(F)cccc3C3=CCN(C(C)C)C3)CC2)cc1 [Example 139, N-{2-fluoro-6-[1-(propan-2-yl)-2,5-dihydro-1H-pyrrol-3-yl]phenyl}-4-(4-methylphenyl)piperidine-1-carboxamide] | 121%
CC(C)c1noc(C2(C)CCN(C(=O)Nc3ccccc3N3CCN(C(C)C)CC3)CC2)n1.Cl [Example 163, 4-methyl-4-[3-(propan-2-yl)-1,2,4-oxadiazol-5-yl]-N-{2-[4-(propan-2-yl)piperazin-1-yl]phenyl}piperidine-1-carboxamide hydrochloride] | 110%
Cc1ccc(C2CCN(C(=O)Nc3ccccc3N3CCN(C4CCOC4)CC3)CC2)cc1 (stereo not drawn) [Example 124, 4-(4-methylphenyl)-N-{2-[4-(oxolan-3-yl)piperazin-1-yl]phenyl}piperidine-1-carboxamide] | 27%
Cc1ccc(C2(C)CCN(C(=O)Nc3c(Cl)cccc3N3CCN(C(C)C)CC3)CC2)cc1 [Example 77, N-{2-chloro-6-[4-(propan-2-yl)piperazin-1-yl]phenyl}-4-methyl-4-(4-methylphenyl)piperidine-1-carboxamide] | 158%
COc1cccc(N2CCN(C(C)C)CC2)c1NC(=O)N1CCC(c2ccc(C)cc2)CC1 [Example 8, N-{2-methoxy-6-[4-(propan-2-yl)piperazin-1-yl]phenyl}-4-(4-methylphenyl)piperidine-1-carboxamide] | 145%
CC(C)N1CCN(c2cccc(Cl)c2NC(=O)N2CCC(C)(c3noc(C(F)(F)F)n3)CC2)CC1 [Example 86, N-{2-chloro-6-[4-(propan-2-yl)piperazin-1-yl]phenyl}-4-methyl-4-[5-(trifluoromethyl)-1,2,4-oxadiazol-3-yl]piperidine-1-carboxamide] | 138%
CC(C)N1CCC(c2cccc(F)c2NC(=O)N2CCC(c3cc(C4CC4)on3)CC2)CC1 [Example 51, 4-(5-cyclopropyl-1,2-oxazol-3-yl)-N-{2-fluoro-6-[1-(propan-2-yl)piperidin-4-yl]phenyl}piperidine-1-carboxamide] | 151%
Cc1cc(C2(C)CCN(C(=O)Nc3c(F)cccc3N3CCN(C(C)C)CC3)CC2)no1 [Example 85, N-{2-fluoro-6-[4-(propan-2-yl)piperazin-1-yl]phenyl}-4-methyl-4-(5-methyl-1,2-oxazol-3-yl)piperidine-1-carboxamide] | 145%
Cc1ccc(C2CCN(C(=O)Nc3c(F)cccc3C3=CCN(C(C)C)CC3)CC2)cc1 [Example 42, N-{2-fluoro-6-[1-(propan-2-yl)-1,2,3,6-tetrahydropyridin-4-yl]phenyl}-4-(4-methylphenyl)piperidine-1-carboxamide] | 128%
Cc1ccc(C2CCN(C(=O)Nc3ccccc3N3CCN(C(C)C)CC3C)CC2)cc1 (racemic) [Example 30, Rac-4-(4-methylphenyl)-N-{2-[2-methyl-4-(propan-2-yl)piperazin-1-yl]phenyl}piperidine-1-carboxamide] | 36%
Cc1ccc(C2(C)CCN(C(=O)Nc3c(Cl)cccc3C3=CCN(C(C)C)CC3)CC2)cc1 [Example 147, N-{2-chloro-6-[1-(propan-2-yl)-1,2,3,6-tetrahydropyridin-4-yl]phenyl}-4-methyl-4-(4-methylphenyl)piperidine-1-carboxamide] | 167%
Cc1ccc(C2CCN(C(=O)Nc3c(F)cccc3C3CCN(C(C)C(F)F)CC3)CC2)cc1 (stereo not drawn) [Example 138, N-{2-[1-(1,1-difluoropropan-2-yl)piperidin-4-yl]-6-fluorophenyl}-4-(4-methylphenyl)piperidine-1-carboxamide] | 44%
CCOc1cccc(C2CCN(C(C)CC)CC2)c1NC(=O)N1CCC(c2ccc(C)cc2)CC1 (stereo not drawn) [Example 128, N-{2-[1-(butan-2-yl)piperidin-4-yl]-6-ethoxyphenyl}-4-(4-methylphenyl)piperidine-1-carboxamide] | 136%
CCc1nc(C2(F)CCN(C(=O)Nc3c(Cl)cccc3N3CCN(C(C)C)CC3)CC2)no1 [Example 95, N-{2-chloro-6-[4-(propan-2-yl)piperazin-1-yl]phenyl}-4-(5-ethyl-1,2,4-oxadiazol-3-yl)-4-fluoropiperidine-1-carboxamide] | 178%
CC(C)N1CCN(c2cccc(F)c2NC(=O)N2CCC(c3ccccn3)CC2)CC1 [Example 36, N-{2-fluoro-6-[4-(propan-2-yl)piperazin-1-yl]phenyl}-4-(pyridin-2-yl)piperidine-1-carboxamide] | 123%
CC(C)N1CCN(c2cccc(F)c2NC(=O)N2CCC(C)(c3noc(C4CC4)n3)CC2)CC1 [Example 45, 4-(5-cyclopropyl-1,2,4-oxadiazol-3-yl)-N-{2-fluoro-6-[4-(propan-2-yl)piperazin-1-yl]phenyl}-4-methylpiperidine-1-carboxamide] | 127%
CC(C)N1CCN(c2cccc(F)c2NC(=O)N2CCC(C)(c3noc(C4(C)CC4)n3)CC2)CC1 [Example 79, N-{2-fluoro-6-[4-(propan-2-yl)piperazin-1-yl]phenyl}-4-methyl-4-[5-(1-methylcyclopropyl)-1,2,4-oxadiazol-3-yl]piperidine-1-carboxamide] | 156%
CC(C)N1CCN(c2cccc(Cl)c2NC(=O)N2CCC(C)(c3cc(C4CC4)on3)CC2)CC1 [Example 61, N-{2-chloro-6-[4-(propan-2-yl)piperazin-1-yl]phenyl}-4-(5-cyclopropyl-1,2-oxazol-3-yl)-4-methylpiperidine-1-carboxamide] | 156%
Cc1ccc(C2CCN(C(=S)Nc3c(F)cccc3N3CCN(C(C)C)CC3)CC2)cc1 [Example 64, N-{2-fluoro-6-[4-(propan-2-yl)piperazin-1-yl]phenyl}-4-(4-methylphenyl)piperidine-1-carbothioamide] | 140%
CCN1CCN(c2ccccc2NC(=O)N2CCC(c3ccc(C)cc3)CC2)CC1 [Example 122, N-[2-(4-ethylpiperazin-1-yl)phenyl]-4-(4-methylphenyl)piperidine-1-carboxamide] | 122%
CC(C)N1CCN(c2cccc(Cl)c2NC(=O)N2CCC(F)(c3noc(C4CC4)n3)CC2)CC1 [Example 94, N-{2-chloro-6-[4-(propan-2-yl)piperazin-1-yl]phenyl}-4-(5-cyclopropyl-1,2,4-oxadiazol-3-yl)-4-fluoropiperidine-1-carboxamide] | 179%
CC(C)c1ncc(-c2cccc(F)c2NC(=O)N2CCC(C)(c3noc(C4CC4)n3)CC2)cn1 [Example 72, 4-(5-cyclopropyl-1,2,4-oxadiazol-3-yl)-N-{2-fluoro-6-[2-(propan-2-yl)pyrimidin-5-yl]phenyl}-4-methylpiperidine-1-carboxamide] | 144%
CC(C)c1ccc(-c2cccc(Cl)c2NC(=O)N2CCC(C)(c3cc(C4CC4)on3)CC2)cn1 [Example 69, N-{2-chloro-6-[6-(propan-2-yl)pyridin-3-yl]phenyl}-4-(5-cyclopropyl-1,2-oxazol-3-yl)-4-methylpiperidine-1-carboxamide] | 129%
COCC(C)N1CCN(c2ccccc2NC(=O)N2CCC(c3ccc(C)cc3)CC2)CC1 (stereo not drawn) [Example 126, N-{2-[4-(1-methoxypropan-2-yl)piperazin-1-yl]phenyl}-4-(4-methylphenyl)piperidine-1-carboxamide] | 139%
Cc1nc(C2(C)CCN(C(=O)Nc3ccccc3N3CCN(C(C)C)CC3)CC2)no1 [Example 120, 4-methyl-4-(5-methyl-1,2,4-oxadiazol-3-yl)-N-{2-[4-(propan-2-yl)piperazin-1-yl]phenyl}piperidine-1-carboxamide] | 125%
CC(C)N1CCN(c2cccc(Cl)c2NC(=O)N2CCC(C)(c3csc(C4CC4)n3)CC2)CC1 [Example 96, N-{2-chloro-6-[4-(propan-2-yl)piperazin-1-yl]phenyl}-4-(2-cyclopropyl-1,3-thiazol-4-yl)-4-methylpiperidine-1-carboxamide] | 160%
CC(C)N1CCC(c2cccc(Cl)c2NC(=O)N2CCC(C)(c3noc(C4CC4)n3)CC2)CC1 [Example 145, N-{2-chloro-6-[1-(propan-2-yl)piperidin-4-yl]phenyl}-4-(5-cyclopropyl-1,2,4-oxadiazol-3-yl)-4-methylpiperidine-1-carboxamide] | 148%
Cc1ccc(C2CCN(C(=O)Nc3c(F)cccc3N3C[C@@H]4C[C@H]3CN4C(C)C)CC2)cc1 [Example 150, N-{2-fluoro-6-[(1S,4S)-5-(propan-2-yl)-2,5-diazabicyclo[2.2.1]heptan-2-yl]phenyl}-4-(4-methylphenyl)piperidine-1-carboxamide] | 116%
CC1(c2noc(C3CC3)n2)CCN(C(=O)Nc2c(F)cccc2C2=CCOCC2)CC1 [Example 56, 4-(5-cyclopropyl-1,2,4-oxadiazol-3-yl)-N-[2-(3,6-dihydro-2H-pyran-4-yl)-6-fluorophenyl]-4-methylpiperidine-1-carboxamide] | 44%
